Assay results reported in patent EP4603105A1, “PHARMACEUTICAL COMPOSITION CONTAINING CYCLIC COMPOUND HAVING SELECTIVE KRAS INHIBITORY EFFECT AGAINST HRAS AND NRAS” (CHUGAI SEIYAKU KABUSHIKI KAISHA, priority 2022, dated 2024).

What was measured:
[1] = target: GDP-bound KRAS wild-type protein (Homo sapiens, UniProt P01116); test: Binding to KRAS by surface plasmon resonance (SPR), dissociation constant KD; settings: 1:1 binding model
Outline: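 Affinity is measured by surface plasmon resonance at 30°C against captured, GDP-loaded RAS carrying a biotinylated Avi tag. Compounds are titrated by single-cycle kinetics, and KD comes from a 1:1 fit.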

[2] = target: GDP-bound NRAS wild-type protein (Homo sapiens, UniProt P01111); test: Binding to NRAS by surface plasmon resonance (SPR), KD and KD ratio to KRAS; settings: ratio of KD for GDP-bound NRAS wild-type protein to KD for KRAS
GDP-bound NRAS wild-type protein, sequence (P01111 whole entry): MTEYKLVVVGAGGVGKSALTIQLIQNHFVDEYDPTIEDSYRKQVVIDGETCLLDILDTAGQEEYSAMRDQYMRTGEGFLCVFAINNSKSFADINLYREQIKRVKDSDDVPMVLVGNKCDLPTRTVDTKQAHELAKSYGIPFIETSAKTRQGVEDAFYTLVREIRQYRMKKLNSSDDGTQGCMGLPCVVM
Outline: (§1)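 SPR, 30°C: Avi-biotin RAS·GDP captured via Biotin CAPture (~100–300 RU); running buffer HBS pH 7.4, 1 mM DTT, 10 mM MgCl2, 0.01% Tween 20, 10 µM GDP, 4% DMSO. Single-cycle kinetics, 100 µL/min, 75 s injections; 1:1 model → KD.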

HRAS wild-type protein = HRAS wild-type protein (Homo sapiens, UniProt P01112); test: Binding to HRAS by surface plasmon resonance (SPR), KD and KD ratio to KRAS; settings: ratio of KD for HRAS wild-type protein to KD for KRAS
HRAS wild-type protein, sequence (P01112 whole entry): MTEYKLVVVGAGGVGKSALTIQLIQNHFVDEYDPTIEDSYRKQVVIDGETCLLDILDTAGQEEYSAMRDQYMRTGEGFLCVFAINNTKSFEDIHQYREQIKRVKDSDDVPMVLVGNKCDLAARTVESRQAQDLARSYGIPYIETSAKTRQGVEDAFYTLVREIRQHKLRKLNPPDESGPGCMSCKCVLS
Outline: as §1

[3] = system: human lung cancer strain NCI-H441; test: NCI-H441 cell proliferation inhibitory activity (CellTiter-Glo, 4 days); assay type: cell-based; settings: NCI-H441 cells, 4 days, read-out: NCl-H441 IC50
Outline: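 Proliferation was scored by […] measured after the reagent was added to cultures kept at 37°C in 5% carbon dioxide.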

GDP-bound KRAS wild-type protein, sequence (P01116 1-188 isoform P01116-2): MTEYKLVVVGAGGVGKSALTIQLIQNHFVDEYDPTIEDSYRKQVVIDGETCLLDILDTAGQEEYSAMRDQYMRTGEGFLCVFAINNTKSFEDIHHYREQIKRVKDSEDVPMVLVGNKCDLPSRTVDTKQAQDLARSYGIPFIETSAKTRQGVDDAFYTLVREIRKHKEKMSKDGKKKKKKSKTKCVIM

| SMILES | Kd [1] [nM] | IC50 [3] [nM] | NRAS /KRAS [2] | HRAS /KRAS (HRAS wild-type protein) |
| --- | --- | --- | --- | --- |
| CCC(CC)[C@H]1C(=O)N(C)[C@H](C(=O)N(C)C)CC(=O)N(C)[C@@H](COC)C(=O)N[C@@H]([C@@H](C)CC)C(=O)N(C2CC2)CC(=O)N(C)[C@H]2C/C=C\CCN(C2=O)[C@@H](CC2CCC(F)(F)CC2)C(=O)N(C)CC(=O)N[C@@H](CCc2cc(F)c(C(F)(F)F)c(F)c2)C(=O)N2C[C@H](OC3CCC3)C[C@H]2C(=O)NC2(CC(C)(C)C2)C(=O)N1C [PP2615] | 2 | 88.7 | A (a compound having 10 or more and less than 20 is denoted as A) | A (a compound having 10 or more and less than 20 is denoted as A) |
| CC[C@H](C)[C@@H]1NC(=O)[C@H](COC)N(C)C(=O)C[C@@H](C(=O)N(C)C)N(C)C(=O)[C@H](C2CCCC2)N(C)C(=O)C2(CC(C)(C)C2)NC(=O)[C@@H]2C[C@@H](OC3CCC3)CN2C(=O)[C@H](CCc2cc(F)c(C(F)(F)F)c(F)c2)NC(=O)CN(C)C(=O)[C@H](CC2CCCCC2)N2CC/C=C\C[C@@H](C2=O)N(C)C(=O)CN(C2CC2)C1=O [PP2618] | 1.4 | 69.5 | A (a compound having 10 or more and less than 20 is denoted as A) | A (a compound having 10 or more and less than 20 is denoted as A) |
| CCC(CC)[C@H]1C(=O)N(C)[C@H](C(=O)N(C)C)CC(=O)N(C)[C@@H](COC)C(=O)N[C@@H]([C@@H](C)CC)C(=O)N(C2CC2)CC(=O)N(C)[C@H]2C/C=C\CCN(C2=O)[C@@H](CC2CCC(F)(F)CC2)C(=O)N(C)CC(=O)N[C@@H](CCc2cc(F)c(C(F)(F)F)c(F)c2)C(=O)N2C[C@H](OC3CCCC3)C[C@H]2C(=O)NC2(CC(C)(C)C2)C(=O)N1C [PP2627] | 2.6 | 95.2 | A (a compound having 10 or more and less than 20 is denoted as A) | A (a compound having 10 or more and less than 20 is denoted as A) |
| CC[C@H](C)[C@@H]1NC(=O)[C@H](COC)N(C)C(=O)C[C@@H](C(=O)N(C)C)N(C)C(=O)[C@H](C2CCCC2)N(C)C(=O)C2(CC(C)(C)C2)NC(=O)[C@@H]2C[C@@H](OC3CCCC3)CN2C(=O)[C@H](CCc2cc(F)c(C(F)(F)F)c(F)c2)NC(=O)CN(C)C(=O)[C@H](CC2CCCCC2)N2CC/C=C\C[C@@H](C2=O)N(C)C(=O)CN(C2CC2)C1=O [PP2630] | 3 | 190 | A (a compound having 10 or more and less than 20 is denoted as A) | B (a compound having 3 or more and less than 10 is denoted as B) |
| CCO[C@@H]1C[C@H]2C(=O)NC3(CC(C)(C)C3)C(=O)N(C)[C@@H](C(CC)CC)C(=O)N(C)[C@H](C(=O)N(C)C)CC(=O)N(C)[C@@H](COC)C(=O)N[C@@H]([C@@H](C)CC)C(=O)N3CCC[C@H]3C(=O)N(C)[C@H]3C/C=C\CCN(C3=O)[C@@H](Cc3ccc(C(F)(F)F)cc3)C(=O)N(C)CC(=O)N[C@@H](CCc3ccc(Cl)c(Cl)c3)C(=O)N2C1 [PP2635] | 0.97 | 50.2 | AA (a compound having 20 or more is denoted as AA) | A (a compound having 10 or more and less than 20 is denoted as A) |
| CCC[C@H]1C(=O)N[C@@H]([C@@H](C)CC)C(=O)N2CCC[C@H]2C(=O)N(C)[C@H]2C/C=C\CCN(C2=O)[C@@H](Cc2ccc(C(F)F)cc2)C(=O)N(C)CC(=O)N[C@@H](CCc2ccc(Cl)c(Cl)c2)C(=O)N2C[C@H](OCC)C[C@H]2C(=O)NC2(CC(C)(C)C2)C(=O)N(C)[C@@H](C(CC)CC)C(=O)N(C)[C@H](C(=O)N(C)C)CC(=O)N1C [PP2637] | 1 | 61.4 | AA (a compound having 20 or more is denoted as AA) | A (a compound having 10 or more and less than 20 is denoted as A) |
| CCC[C@H]1C(=O)N[C@@H]([C@@H](C)CC)C(=O)N2CCC[C@H]2C(=O)N(C)[C@H]2C/C=C\CCN(C2=O)[C@@H](Cc2ccc(C)cc2)C(=O)N(C)CC(=O)N[C@@H](CCc2ccc(Cl)c(Cl)c2)C(=O)N2C[C@H](OCC)C[C@H]2C(=O)NC2(CC(C)(C)C2)C(=O)N(C)[C@@H](C(CC)CC)C(=O)N(C)[C@H](C(=O)N(C)C)CC(=O)N1C [PP2638] | 2.5 | 97 | AA (a compound having 20 or more is denoted as AA) | A (a compound having 10 or more and less than 20 is denoted as A) |
| CCC(CC)[C@H]1C(=O)N(C)[C@H](C(=O)N(C)C)CC(=O)N(C)[C@@H](COC)C(=O)N[C@@H]([C@@H](C)CC)C(=O)N2CCC[C@H]2C(=O)N(C)[C@H]2C/C=C\CCN(C2=O)[C@@H](Cc2ccc(C(F)(F)F)cc2)C(=O)N(C)CC(=O)N[C@@H](CCc2ccc(Cl)c(Cl)c2)C(=O)N2C[C@H](OC(C)C)C[C@H]2C(=O)NC2(CC(C)(C)C2)C(=O)N1C [PP2639] | 1.1 | 81.6 | AA (a compound having 20 or more is denoted as AA) | A (a compound having 10 or more and less than 20 is denoted as A) |
| CCC[C@H]1C(=O)N[C@@H]([C@@H](C)CC)C(=O)N2CCC[C@H]2C(=O)N(C)[C@H]2C/C=C\CCN(C2=O)[C@@H](Cc2ccc(C)cc2)C(=O)N(C)CC(=O)N[C@@H](CCc2ccc(Cl)c(Cl)c2)C(=O)N2C[C@H](OC(C)C)C[C@H]2C(=O)NC2(CC(C)(C)C2)C(=O)N(C)[C@@H](C(CC)CC)C(=O)N(C)[C@H](C(=O)N(C)C)CC(=O)N1C [PP2641] | 2 | 98.6 | AA (a compound having 20 or more is denoted as AA) | A (a compound having 10 or more and less than 20 is denoted as A) |
| CCC(CC)[C@H]1C(=O)N(C)[C@H](C(=O)N(C)C)CC(=O)N(C)[C@@H](COC)C(=O)N[C@@H]([C@@H](C)CC)C(=O)N2CCC[C@H]2C(=O)N(C)[C@H]2C/C=C\CCN(C2=O)[C@@H](Cc2ccc(C(F)(F)F)cc2)C(=O)N(C)CC(=O)N[C@@H](CCc2ccc(Cl)c(Cl)c2)C(=O)N2C[C@H](OC3CCC3)C[C@H]2C(=O)NC2(CC(C)(C)C2)C(=O)N1C [PP2645] | 1.1 | 86.7 | AA (a compound having 20 or more is denoted as AA) | A (a compound having 10 or more and less than 20 is denoted as A) |
| CCC[C@H]1C(=O)N[C@@H]([C@@H](C)CC)C(=O)N2CCC[C@H]2C(=O)N(C)[C@H]2C/C=C\CCN(C2=O)[C@@H](Cc2ccc(C(F)F)cc2)C(=O)N(C)CC(=O)N[C@@H](CCc2ccc(Cl)c(Cl)c2)C(=O)N2C[C@H](OC3CCC3)C[C@H]2C(=O)NC2(CC(C)(C)C2)C(=O)N(C)[C@@H](C(CC)CC)C(=O)N(C)[C@H](C(=O)N(C)C)CC(=O)N1C [PP2646] | 1.6 | 92.6 | AA (a compound having 20 or more is denoted as AA) | A (a compound having 10 or more and less than 20 is denoted as A) |

The next compounds have a lower Kd [1] than those just listed; values first:

| Kd [1] [nM] | IC50 [3] [nM] | SMILES | NRAS /KRAS [2] | HRAS /KRAS (HRAS wild-type protein) |
| --- | --- | --- | --- | --- |
| 0.81 | 75 | CCC[C@H]1C(=O)N[C@@H]([C@@H](C)CC)C(=O)N(C)CC(=O)N(C)[C@H]2C/C=C\CCN(C2=O)[C@@H](Cc2ccc(C)cc2)C(=O)N(C)CC(=O)N[C@@H](CCc2ccc(Cl)c(Cl)c2)C(=O)N2C[C@H](OC3CCC3)C[C@H]2C(=O)NC2(CC(C)(C)C2)C(=O)N(C)[C@@H](C(CC)CC)C(=O)N(C)[C@H](C(=O)N(C)C)CC(=O)N1C [PP2644] | AA (a compound having 20 or more is denoted as AA) | A (a compound having 10 or more and less than 20 is denoted as A) |
| 0.8 | 66.4 | CCC[C@H]1C(=O)N[C@@H]([C@@H](C)CC)C(=O)N(C2CC2)CC(=O)N(C)[C@H]2C/C=C\CCN(C2=O)[C@@H](Cc2ccc(C)cc2)C(=O)N(C)CC(=O)N[C@@H](CCc2ccc(Cl)c(Cl)c2)C(=O)N2C[C@H](OC3CCC3)C[C@H]2C(=O)NC2(CC(C)(C)C2)C(=O)N(C)[C@@H](C2CCCC2)C(=O)N(C)[C@H](C(=O)N(C)C)CC(=O)N1C [PP2616] | A (a compound having 10 or more and less than 20 is denoted as A) | A (a compound having 10 or more and less than 20 is denoted as A) |
| 0.53 | 43.8 | CC[C@H](C)[C@@H]1NC(=O)[C@H](COC)N(C)C(=O)C[C@@H](C(=O)N(C)C)N(C)C(=O)[C@H](C2CCCC2)N(C)C(=O)C2(CC(C)(C)C2)NC(=O)[C@@H]2C[C@@H](OC3CCC3)CN2C(=O)[C@H](CCc2cc(F)c(C(F)(F)F)c(F)c2)NC(=O)CN(C)C(=O)[C@H](CC2CCC(F)(F)CC2)N2CC/C=C\C[C@@H](C2=O)N(C)C(=O)CN(C2CC2)C1=O [PP2622] | A (a compound having 10 or more and less than 20 is denoted as A) | B (a compound having 3 or more and less than 10 is denoted as B) |
| 0.44 | 36.6 | CCC(CC)[C@H]1C(=O)N(C)[C@H](C(=O)N(C)C)CC(=O)N(C)[C@@H](COC)C(=O)N[C@@H]([C@@H](C)CC)C(=O)N(C)CC(=O)N(C)[C@H]2C/C=C\CCN(C2=O)[C@@H](Cc2ccc(C(F)(F)F)cc2)C(=O)N(C)CC(=O)N[C@@H](CCc2ccc(Cl)c(Cl)c2)C(=O)N2C[C@H](OC3CCC3)C[C@H]2C(=O)NC2(CC(C)(C)C2)C(=O)N1C [PP2642] | AA (a compound having 20 or more is denoted as AA) | A (a compound having 10 or more and less than 20 is denoted as A) |
| 0.27 | 12.1 | CCC[C@H]1C(=O)N[C@@H]([C@@H](C)CC)C(=O)N(C2CC2)CC(=O)N(C)[C@H]2C/C=C\CCN(C2=O)[C@@H](Cc2ccc(C)cc2)C(=O)N(C)CC(=O)N[C@@H](CCc2cc(F)c(C(F)(F)F)c(F)c2)C(=O)N2C[C@H](OC3CCC3)C[C@H]2C(=O)NC2(CC(C)(C)C2)C(=O)N(C)[C@@H](C2CCCC2)C(=O)N(C)[C@H](C(=O)N(C)C)CC(=O)N1C [PP2614] | A (a compound having 10 or more and less than 20 is denoted as A) | A (a compound having 10 or more and less than 20 is denoted as A) |
